Calls of active or inactive are those of the source. The rule behind the calls is not given here.
System: rodent carcinogenicity bioassays, tumor incidence
Assay: CCRIS carcinogenicity studies
How it was run: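 NCI-built, expert-reviewed records of carcinogenicity and related test outcomes (mutagenicity, tumor promotion/inhibition) compiled from published and report sources, historical span 1985-2011, not updated.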

`OCc1ccc2ccc3cccc4ccc1c2c34` was tested, and the carcinogen call (Species: RAT, Strain/Sex: SPRAGUE-DAWLEY/FEMALE, Route: SUBCUTANEOUS, Dose: 0, 0.2 UMOL IN 0.1 ML SESAME OIL:DMSO (9:1) 1/2 D FOR 20 DOSES (STUDY DURATION: 52 WK)) was “inactive; negative”.

`CC(C)N1C(=O)c2ccccc2NS1(=O)=O` was tested, and the carcinogen call (Species: Mouse, Strain/Sex: B6C3F1/Female (70/sex/group), Route: Oral, Dose: 0, 100, 400, 2000 ppm in diet for 2 yr, Dose: 0, 100, 400, 2000 ppm in diet for 2 yr) was “inactive; negative; purity 93.3%”, the carcinogen call (Species: Mouse, Strain/Sex: B6C3F1/Male (70/sex/group), Route: Oral, Dose: 0, 100, 400, 2000 ppm in diet for 2 yr, Dose: 0, 100, 400, 2000 ppm in diet for 2 yr, Tumor Site: Type of Lesion: Liver: Combined hepatocellular adenoma and carcinoma (13/49 in controls and 22/49 at highest dose)) was “active; positive; purity 93.3%” and the carcinogen call (Species: Rat, Strain/Sex: Fischer 344/DU CRJ/Female (70/sex/group), Route: Oral, Dose: 0, 200, 800, 4000 ppm in diet for 2 yr, Dose: 0, 200, 800, 4000 ppm in diet for 2 yr) was “inactive; negative; purity 93.3%”. For the same compound, the carcinogen call (Species: Rat, Strain/Sex: Fischer 344/DU CRJ/Male (70/sex/group), Route: Oral, Dose: 0, 200, 800, 4000 ppm in diet for 2 yr, Dose: 0, 200, 800, 4000 ppm in diet for 2 yr) was “inactive; negative; purity 93.3%”.

In the case of `CCN(CC(=O)O)N=O`, the carcinogen call (Species: MOUSE, Strain/Sex: BALB/C/MALE, Route: ORAL, Dose: 0, 1000, 2000 PPM IN DRINKING WATER FOR 2 WK (STUDY DURATION: 52 WK), Dose: 0, 1000, 2000 PPM IN DRINKING WATER FOR 2 WK (STUDY DURATION: 52 WK)) is reported as “inactive; negative” and the carcinogen call (Species: RAT, Strain/Sex: WISTAR/MALE, Route: ORAL, Dose: 0, 1000, 2000 PPM IN DRINKING WATER FOR 2 WK (STUDY DURATION: 52 WK), Dose: 0, 1000, 2000 PPM IN DRINKING WATER FOR 2 WK (STUDY DURATION: 52 WK)) is reported as “inactive; negative”.

In the case of `O=C(O)CO`, the carcinogen call (Species: Mouse, Strain/Sex: SKH-1/Female (18/Group), Route: Dermal, Dose: 0, 4, 10% administered as topical cream (pH 3.5) , 5 d/wk, 40 wk, animals held an additional 12 wk for study duration of, Tumor Site: Type of Lesion: Skin: Carcinoma in situ, squamous cell carcinoma, basal cell carcinoma) is reported as “inactive; negative. when synthetic solar light (ssl) at 0.3 and 0.6 the minimal erythema d” and the carcinogen call (Species: Mouse, Strain/Sex: SKH-1/Male (18/Group), Route: Dermal, Dose: 0, 4, 10% administered as topical cream (pH 3.5) , 5 d/wk, 40 wk, animals held an additional 12 wk for study duration of, Tumor Site: Type of Lesion: Skin: Carcinoma in situ, squamous cell carcinoma, basal cell carcinoma) is reported as “inactive; negative. when synthetic solar light (ssl) at 0.3 and 0.6 the minimal erythema d”.

With `Cc1cccc2ccccc12` the carcinogen call (Species: MOUSE, Strain/Sex: B6C3F1/FEMALE, Route: ORAL, Dose: 0, 0.075, 0.15% IN DIET FOR 81 WK (STUDY DURATION: 81 WK), Dose: 0, 0.075, 0.15% IN DIET FOR 81 WK (STUDY DURATION: 81 WK)) was “inactive; negative” and the carcinogen call (Species: MOUSE, Strain/Sex: B6C3F1/MALE, Route: ORAL, Dose: 0, 0.075, 0.15% IN DIET FOR 81 WK (STUDY DURATION: 81 WK), Dose: 0, 0.075, 0.15% IN DIET FOR 81 WK (STUDY DURATION: 81 WK), Tumor Site: Type of Lesion: LUNG: ADENOMA) was “active; positive”.

For `O=C(CO)CO`, the carcinogen call (Species: MOUSE, Strain/Sex: SWISS/FEMALE, Route: DERMAL, Dose: 0, 5, 40% AQUEOUS SOLUTION APPLIED 1/WK FOR 80 WK (STUDY DURATION: 80 WK), Dose: 0, 5, 40% AQUEOUS SOLUTION APPLIED 1/WK FOR 80 WK (STUDY DURATION: 80 WK)) was “inactive; negative” and the carcinogen call (Species: MOUSE, Strain/Sex: SWISS/MALE, Route: DERMAL, Dose: 0, 5%, 40% AQUEOUS SOLUTION APPLIED 1/WK FOR 80 WK (STUDY DURATION: 80 WK), Dose: 0, 5%, 40% AQUEOUS SOLUTION APPLIED 1/WK FOR 80 WK (STUDY DURATION: 80 WK)) was “inactive; negative”.

For `CNC(=O)Oc1cc(C)c(N(C)C)c(C)c1`, the carcinogen call (Species: MOUSE, Strain/Sex: B6C3F1/FEMALE, Route: ORAL, Dose: 0, 68, 135 PPM IN DIET, TWA, Dose: 0, 68, 135 PPM IN DIET, TWA) was “inactive; negative”, the carcinogen call (Species: MOUSE, Strain/Sex: B6C3F1/MALE, Route: ORAL, Dose: 0, 327, 654 PPM IN DIET, TWA, Dose: 0, 327, 654 PPM IN DIET, TWA) was “inactive; negative” and the carcinogen call (Species: RAT, Strain/Sex: OSBORNE-MENDEL/FEMALE, Route: ORAL, Dose: 0, 339, 678 PPM IN DIET, TWA, Dose: 0, 339, 678 PPM IN DIET, TWA) was “inactive; negative”. The carcinogen call (Species: RAT, Strain/Sex: OSBORNE-MENDEL/MALE, Route: ORAL, Dose: 0, 209, 418 PPM IN DIET, TWA, Dose: 0, 209, 418 PPM IN DIET, TWA) was “inactive; negative”.

With `Nc1ccc([N+](=O)[O-])cc1` the carcinogen call (Species: MOUSE, Strain/Sex: B6C3F1/FEMALE, Route: GAVAGE, Dose: 0, 3, 30, 100 MG/KG IN CORN OIL 5 D/WK FOR 103 WK (STUDY DURATION: 104 WK), Dose: 0, 3, 30, 100 MG/KG IN CORN OIL 5 D/WK FOR 103 WK (STUDY DURATION: 104 WK)) was “inactive; negative”, the carcinogen call (Species: MOUSE, Strain/Sex: B6C3F1/MALE, Route: GAVAGE, Dose: 0, 3, 30, 100 MG/KG IN CORN OIL 5 D/WK FOR 103 WK (STUDY DURATION: 104 WK), Dose: 0, 3, 30, 100 MG/KG IN CORN OIL 5 D/WK FOR 103 WK (STUDY DURATION: 104 WK), Tumor Site: Type of Lesion: LIVER: HEMANGIOSARCOMA, ALL ORGANS: HEMANGIOMA OR HEMANGIOSARCOMA) was “equivocal” and the carcinogen call (Species: RAT, Strain/Sex: STRAIN CD/MALE, FEMALE, Route: GAVAGE, Dose: 0, 0.25, 1.5, 9 MG/KG IN CORN OIL 1/D 7 D/WK FOR 24 MO (STUDY DURATION: 24 MO), Dose: 0, 0.25, 1.5, 9 MG/KG IN CORN OIL 1/D 7 D/WK FOR 24 MO (STUDY DURATION: 24 MO)) was “inactive; negative”.

With `IC(I)I` the carcinogen call (Species: MOUSE, Strain/Sex: B6C3F1/FEMALE, Route: GAVAGE, Dose: 0, 47, 93 MG/KG, TWA, Dose: 0, 47, 93 MG/KG, TWA) was “inactive; negative”, the carcinogen call (Species: MOUSE, Strain/Sex: B6C3F1/MALE, Route: GAVAGE, Dose: 0, 47, 93 MG/KG, TWA, Dose: 0, 47, 93 MG/KG, TWA) was “inactive; negative” and the carcinogen call (Species: RAT, Strain/Sex: OSBORNE-MENDEL/FEMALE, Route: GAVAGE, Dose: 0, 27, 55 MG/KG, TWA, Dose: 0, 27, 55 MG/KG, TWA) was “inactive; negative”. For the same compound, the carcinogen call (Species: RAT, Strain/Sex: OSBORNE-MENDEL/MALE, Route: GAVAGE, Dose: 0, 71, 142 MG/KG, TWA, Dose: 0, 71, 142 MG/KG, TWA) was “inactive; negative”.

For `C[C@]12CC[C@@H]3c4ccc(OC(=O)Cc5ccc(N(CCCl)CCCl)cc5)cc4CC[C@H]3[C@@H]1CC[C@@H]2OC(=O)Cc1ccc(N(CCCl)CCCl)cc1`, the carcinogen call (Species: MOUSE, Strain/Sex: B6C3F1/FEMALE, Route: GAVAGE, Dose: 0, 15, 30 MG/KG 3/WK FOR 52 WKS, Dose: 0, 15, 30 MG/KG 3/WK FOR 52 WKS, Tumor Site: Type of Lesion: LUNG: ALVEOLAR/BRONCHIOLAR ADENOMA OR CARCINOMA, LYMPHATIC SYSTEM: LYMPHOMA, MYOCARDIUM: SARCOMA, STOMACH, Tumor Site: Type of Lesion: LUNG: ALVEOLAR/BRONCHIOLAR ADENOMA OR CARCINOMA, LYMPHATIC SYSTEM: LYMPHOMA, MYOCARDIUM: SARCOMA, STOMACH) was “active; positive”, the carcinogen call (Species: MOUSE, Strain/Sex: B6C3F1/MALE, Route: GAVAGE, Dose: 0, 15, 30 MG/KG 3/WK FOR 52 WKS, Dose: 0, 15, 30 MG/KG 3/WK FOR 52 WKS, Tumor Site: Type of Lesion: LUNG: ALVEOLAR/BRONCHIOLAR ADENOMA OR CARCINOMA, HEMATOPOIETIC SYSTEM (LEUKEMIA): LYMPHOCYTIC LEUKEMIA, LYMPHATIC SYSTEM, Tumor Site: Type of Lesion: LUNG: ALVEOLAR/BRONCHIOLAR ADENOMA OR CARCINOMA, HEMATOPOIETIC SYSTEM (LEUKEMIA): LYMPHOCYTIC LEUKEMIA, LYMPHATIC SYSTEM) was “active; positive” and the carcinogen call (Species: RAT, Strain/Sex: SPRAGUE-DAWLEY/FEMALE, Route: GAVAGE, Dose: 0, 0.62, 1.25 MG/KG IN 0.05% POLYSORB 80 IN PHOS BUFF SALINE 3/WK FOR 52 WK, Dose: 0, 0.62, 1.25 MG/KG IN 0.05% POLYSORB 80 IN PHOS BUFF SALINE 3/WK FOR 52 WK) was “inactive; negative”. The carcinogen call (Species: RAT, Strain/Sex: SPRAGUE-DAWLEY/MALE, Route: GAVAGE, Dose: 0, 0.62, 1.25 MG/KG IN 0.05% POLYSORB 80 IN PHOS BUFF SALINE 3/WK FOR 52 WK, Dose: 0, 0.62, 1.25 MG/KG IN 0.05% POLYSORB 80 IN PHOS BUFF SALINE 3/WK FOR 52 WK) was “inactive; negative”.
